US20260115265A1, “METHODS AND COMPOSITIONS FOR PREVENTING OR TREATING FOOD ALLERGIES” (Revolo Biotherapeutics Limited, priority 2022, published 2026)
Read-outs that look alike come from different tables or passages of the source. Ends that are not written are not given here.

Experiment: Serum/plasma pharmacokinetics (half-life)
Assay type: in vivo

Sequence: DGSVVVNKVSELPAGHGLNVNTLSYGDLAAD ['1104]
- half-life (in vivo, across species, read-out: half-life): 10 to 15 min
- half-life (serum, read-out: serum PK): ~15 min
